Square brackets hold non-standard residues; d marks the D form. Peptide text beside a SMILES is read from it. Nle = CCCC[C@H](N)C(=O)O
How the values were obtained:
Type in all cases: cell-based, human
[1] = tested on: HSF1; test: Western blot of steady-state HSF1 protein levels in HepG2 whole cell extracts; conditions: ALLN 40 μg/ml, 2 hours, with or without cycloheximide
Experimental: FIGS. 6A-6B: ALLN affects the trimerization of HSF. HepG2 cells were treated with serum-free MEM containing 1.5% BSA for 2 hours at 37° C. without any additions (lane1), at 37 ° C. but containing 40μg/ml of ALLN in the medium (lane2), at 37° C. in a medium containing both ALLN and 50 μg/ml of cycloheximide (lane3) , at 42° C. alone (lane4), or at 42° C. plus cycloheximide in the medium (lane5). Cell lysates were prepared as described under Experimental Details. The lysates were either directly run on the SDS-PAGE (A) to show the steady-state protein levels of HSF1 or subjected to cross-linking with ethylene glycol bis sucrinimidylsuccinate (EGS) before running the gel (B) to show the oligomeric forms of HSF1. The proteins were then transfered to a nitrocellulose membrane and immunoblotted with anti-human HSF1 antibody. Arrows on the right side indicates the monomeric, dimeric or trimeric forms of HSF1, respectively. This experiment was repeated three times with identical results.
For measurement of the steady-state HSF1 protein levels, whole cell extracts were prepared by lysing the cells directly with 2×SDS-sample buffer (Maniatis, et al., 1982). For chemical cross-linking experiments, whole-cell extracts were prepared as described (Mosser, et al., 1988). Briefly, the cold PBS-washed cell pellets were quickly and repeatedly frozen in liquid nitrogen. […]

[2] = tested on: Hsp25; test: Immunoprecipitation of Hsp25 from radiolabeled HepG2 cells; conditions: HepG2, ALLN 4 hours
Experimental: (§1) FIGS. 7A-7B: Effects of ALLN on the biosynthesis of other members of Hsp family and related proteins. HepG2 cells were pre-treated and radiolabeled with or without ALLN for 4 hours as described in FIG. 1. Cell lysates were used for SDS-PAGE (A), or for immunoprecipitation with anti-Hsp25, -Hsp27, -Hsp60, -Hsp70, -Hsp86, -Hsp90, -Hsp104, -Bip, or -albumin antibodies respectively (1 μg/ml) (B). Because the anti-Hsp25, -Hsp27, -Hsp60 and Hsp90 antibodies are from a rat source, rabbit anti-rat IgG antibody was added after the first incubation, and the incubation was extended for another 1 hour at 4° C. before collection with protein A-Sepharose.Immunoprecipitates were loaded for SDS-PAGE and aliquoted for scintillation counting and plotting. Each value was presented as mean ±S.D. from three individual culture dishes.
(§2) HepG2 cells were preincubated for 4 hours in serum-free MEM and then radiolabeled with ^3 H-Leucine (150 μCi/ml) in a serum-free, leucine-free medium. […] Cell lysates containing equal amounts of trichloroacetic acid (TCA)-insoluble radioactivity were used for immunoprecipitations by incubating with individual monoclonal antibody (1 μg/ml) for 2.5 hours at 4° C. […]

[3] = tested on: Hsp27; test: Immunoprecipitation of Hsp27 from radiolabeled HepG2 cells; conditions: HepG2, ALLN 4 hours
Experimental: as §1, §2

[4] = tested on: HepG2 cells; test: Total incorporation of radiolabel (TCA cpm) as indicator of cell toxicity, HepG2; conditions: ALLN 10 μg/ml, HepG2
Experimental: HepG2 cells were preincubated for 4 hours in serum-free MEM and then radiolabeled with ^3 H-Leucine (150 μCi/ml) in a serum-free, leucine-free medium. Preincubation and labeling media each contained either 1.5% bovine serum albumin (BSA) alone, or BSA plus ALLN (40 μg/ml except as otherwise indicated), or BSA plus other protease inhibitors at concentrations indicated in the figure legends. At the indicated times, cells were removed from the 37° C. incubator and placed on ice, washed with cold phosphate-buffer saline (PBS) twice and lysed with lysis buffer containing 1% Triton X-100 (TX100), 1% deoxycholic acid (DOC) and 0.1% SDS in PBS containing proteinase inhibitors: 2 mM phenylmethylsulfonyl fluoride (PMSF); 2 μg/ml ALLN; 2 μg/ml leupeptin; and 2 μg/ml aprotinin. After a 30 min. incubation with lysis buffer at 4° C., the lysates were centrifuged at 14,000 g in a microcentrifuge for 5 min., and the supernatants were adjusted to 1% SDS concentration and boiled for 5 min. to denature the proteins. 1% TX100 was then added to dilute the lysates to a final concentration of 0.1% SDS. Cell lysates containing equal amounts of trichloroacetic acid (TCA)-insoluble radioactivity were used for immunoprecipitations by incubating with individual monoclonal antibody (1 μg/ml) for 2.5 hours at 4° C. Protein-A Sepharose 4B was added afterwards and the lysates incubated for another 1.5 hours at 4° C. to collect the immunocomplexes. After washing four times with 1×NET buffer (containing 0.5% TX100, 0.1% SDS), the immunocomplexes were mixed with sample buffer and boiled for 5 min. Following centrifugation, the supernatants were aliquoted for scintillation counting and for 3-15% gradient polyacrymide gel electrophoresis (SDS-PAGE) . The gels were later subjected to fluorography. All values are presented as the mean ± S.D. from three individual experiments except as otherwise indicated.

[5] = tested on: protein of about 80-90 kDa; test: Whole-cell protein pattern of [3H]-leucine-labeled HepG2 lysates on SDS-PAGE; conditions: ALLN-treated versus control HepG2 cells, FIG. 2A
Description: It was reported (Liu, et al., 1989) that in human diploid fibroblasts, heat shock treatment could induce the synthesis of several members of the Hsp family, including Hsp25, Hsp50, Hsp64, Hsp72, Hsp78, Hsp89 and Hsp98. Short, sublethal episodes of cardiac ischemia increase both Hsp70 and Hsp60 (Marber, et al., 1988). Such complex induction patterns may reflect an increased requirement for several of these Hsps, i.e., the need for several of these Hsps to increase, in order to prevent or protect pre-existing proteins from denaturation. […] It would be interesting to characterize this polypeptide and to identify its roles in the ALLN-induced cellular response.

For `CCCC[C@@H](C=O)NC(=O)[C@H](CC(C)C)NC(=O)[C@H](CC(C)C)NC(C)=O` [ALLN, N-acetyl-leucyl-leucyl-norleucinal] (Ac-Leu-Leu-[Nle]-aldehyde), the “Steady-state levels of HSF1 in whole cell extracts” value [1] was “not significantly affected”, the “Effect on Hsp25” value [2] was “no effects” and the “Effect on Hsp27” value [3] was “no effects”. For the same compound, the “Cell total incorporation of radiolabel (TCA cpm, an indicator of cell toxicity)” value [4] was “did not change significantly” and the “Synthesis of a protein of about 80-90 kDa” value [5] was “also increased”.

Source: patent US5942494A, “Stimulation of gene expression and synthesis of heat shock protein 72/73 (HSP 70)” (The Trustees of Columbia University in the City of New York, priority 1996, dated 1999)
